“And” between values parts separate entries of the source, which are not always exact repeats. Identical values can stand only once. Like-named read-outs stand apart in the source and are kept apart here.
How the values were obtained:
in vivo = assay: in vivo; design: species or system mouse; Plasma free: unit not given here; conditions: for Kp / Cmax / MRT / Tmax / AUC(0-t) / AUC(0-inf) / CL/F / half-life: female, CD1, mouse, in vivo; for Cmax / MRT / Tmax / AUC(0-t) / AUC(0-inf) / CL/F / half-life: po, 10 mg/kg/day; for Cmax / MRT / Tmax / AUC(0-t) / AUC(0-inf) / CL/F / half-life / Vd: mouse, 10 mg/kg/day p.o.; for AUC(0-t): read-out: AUC0–24
Experimental: […]. All mice were fed prior to dosing. After dosing, 200 uL of blood was collected at predetermined time points (pre, 1, 3, 7, 24 h). Blood samples were processed for plasma by centrifugation at approximately 4 °C, 4,500 g for 15 min within […]. Plasma samples were stored in polypropylene tubes, quick frozen over dry ice and kept at −70 ± 10 °C until LC/MS/MS analysis. Plasma concentration versus time data was analyzed by non-compartmental approaches using the Phoenix WinNonlin 6.3 software program. Brain tissue samples were taken at day 1, 4, and 8. Tissue samples were processed by centrifugation at approximately 10 °C, 17,000 g for 30 min within 30 min of collection.

T. gondii RH-FLuc parent = assay: Luciferase growth assay, parental line of resistance selection; type: cell-based, Toxoplasma gondii; conditions: for luciferase signal (raw): parent
Description: […]. […] […].

For `COc1ccc(NC(=O)N2CCCCN3[C@H](CN(C)C)[C@H](c4ccc(C#Cc5ccccc5)cc4)[C@@H]3C2)cc1` [BRD7929], the “free concentration in plasma vs EC50” value (in vivo; 10 mg/kg p.o. daily, 8 days, unbound) was “remained below the EC50 for most of the duration”, the Plasma free (in vivo; 10 mg/kg p.o. daily, mean, time 1:00:00) was 7.292 and the Brain free (in vivo; 10 mg/kg p.o. daily, mean, time 24:00:00) was 24.8595. The Kp (in vivo; brain/plasma, Day 1, read-out: Kp (Cb/Cp)) was 169, the Kp (in vivo; brain/plasma, Day 4, read-out: Kp (Cb/Cp)) was 211 and the Kp (in vivo; brain/plasma, Day 8, read-out: Kp (Cb/Cp)) was 577. It also gave a Cmax (in vivo; Day 1) of 153 ng/mL, an MRT (in vivo; Day 1) of 13.1 h and a Tmax (in vivo; Day 1) of 18.3 h. For the same compound, the AUC(0-t) (in vivo; Day 1) was 3190 ng·h/mL, the AUC(0-inf) (in vivo; Day 4) was 27700 ng·h/mL and the CL/F (in vivo; Day 4) was 7.1 mL/min/kg. For the same compound, the Cmax (in vivo; Day 4) was 330 ng/mL, the MRT (in vivo; Day 4) was 11.7 h and the Tmax (in vivo; Day 4) was 4.3 h. For the same compound, the half-life (in vivo; Day 4) was 64.6 h, the AUC(0-t) (in vivo; Day 4) was 6360 ng·h/mL and the AUC(0-inf) (in vivo; Day 8) was 20000 ng·h/mL. For the same compound, the CL/F (in vivo; Day 8) was 10 mL/min/kg, the Cmax (in vivo; Day 8) was 207 ng/mL and the MRT (in vivo; Day 8) was 12 h. It also gave a Tmax (in vivo; Day 8) of 5 h, a half-life (in vivo; Day 8) of 81.3 h and an AUC(0-t) (in vivo; Day 8) of 4390 ng·h/mL. It also gave a Kp (in vivo; unbound brain/plasma, Day 1, read-out: Kpu,u (Cb/Cp)) of 2.1, a Kp (in vivo; unbound brain/plasma, Day 4, read-out: Kpu,u (Cb/Cp)) of 2.6 and a Kp (in vivo; unbound brain/plasma, Day 8, read-out: Kpu,u (Cb/Cp)) of 7.2. For the same compound, the Kp (in vivo; read-out: Kp u,u, concentration in brain vs. plasma) was 2 to 7, the “Vd” value (in vivo; Day 4) was 32 L/kg and the “Vd” value (in vivo; Day 8) was 62 L/kg. For the same compound, the Plasma free (in vivo; time 3:00:00) was 9.26, the Plasma free (in vivo; time 7:00:00) was 10.41 and the Plasma free (in vivo; time 24:00:00) was 11.33. It also gave a Plasma free (in vivo; time 72:00:00) of 12.09, a Plasma free (in vivo; time 73:00:00) of 19.13 and a Plasma free (in vivo; time 75:00:00) of 25.02. For the same compound, the Plasma free (in vivo; time 79:00:00) was 22.5, the Brain free (in vivo; time 96:00:00) was 44.7005 and the Plasma free (in vivo; time 96:00:00) was 17.52. The Plasma free (in vivo; time 168:00:00) was 12.4, the Plasma free (in vivo; time 169:00:00) was 14.08 and the Plasma free (in vivo; time 171:00:00) was 14.92. The Plasma free (in vivo; time 175:00:00) was 15.38, the Brain free (in vivo; time 192:00:00) was 77.3745 and the Plasma free (in vivo; time 192:00:00) was 12.86. For the same compound, the EC50 (T. gondii RH-FLuc parent; Toxoplasma gondii, read-out: EC50, parent RH-FLuc) was 14 nM, the “luciferase signal (raw)” value (T. gondii RH-FLuc parent; concentration 2.222222) was 5 and 6 and 7 and 8 and the “luciferase signal (raw)” value (T. gondii RH-FLuc parent; concentration 6.666667) was 5 and 4 and 6. The “luciferase signal (raw, Fig 3B source data)” value (T. gondii RH-FLuc parent; {}) was 5.
